One experiment concerns Pseudomonas aeruginosa. Kind of experiment: Qualitative antimicrobial test on P. aeruginosa (wet method, growth on plates). It is filed as cell-based. The following applies: for antimicrobial effect (in words): 30 minutes incubation time. As for the experimental part:
We performed quantitative antimicrobial tests on Gram-negative E. coli BL21 (DE3), a common human pathogen, and qualitative tests on Gram-negative P. aeruginosa, a human pathogen not susceptible to antimicrobial amines such as BPEI and […]. Therefore, any antimicrobial activity in the P. aeruginosa tests will predominantly stem from silver. The activity of each active agent was determined by comparing the number of colony forming units (CFU) of a reference plate with the CFU of a test plate as depicted in FIG. 20. The reduction of CFU on a test plate with antimicrobial agent is time dependent and concentration dependent. The schematic in FIG. 21 describes the wet method procedure that was followed for antimicrobial tests on both E. coli and P. aeruginosa. First, 200 μl of each active agent was placed into separate low retention centrifuge tubes. 100 μl of PBS buffer was added to each tube to baseline the ionic strength, and to adjust the pH value to 7. […] The samples were continuously vortexed. After the bacteria were exposed to the active agent for 1 minute, the survival rate of the bacteria was determined by plating 100 μl of each sample evenly distributed on Luria-Bertani agar plates. The procedure was repeated after 30 minutes of exposure time. After the plating procedure, the petri dishes were sealed and incubated upside-down for 48 h at 37° C.

The subject of a further experiment is E. coli BL21 (DE3). Kind of experiment: Quantitative antimicrobial test on E. coli (wet method, CFU reduction efficiency). The following applies: for CFU reduction efficiency: 40 ppm. Type of experiment: cell-based, Escherichia coli. As for the experimental part:
We performed quantitative antimicrobial tests on Gram-negative E. coli BL21 (DE3), a common human pathogen, and qualitative tests on Gram-negative P. aeruginosa, a human pathogen not susceptible to antimicrobial amines such as BPEI and […]. Therefore, any antimicrobial activity in the P. aeruginosa tests will predominantly stem from silver. The activity of each active agent was determined by comparing the number of colony forming units (CFU) of a reference plate with the CFU of a test plate as depicted in FIG. 20. The reduction of CFU on a test plate with antimicrobial agent is time dependent and concentration dependent. […] We quantified by the antimicrobial reduction efficiency “E” with the following equation The schematic in FIG. 21 describes the wet method procedure that was followed for antimicrobial tests on both E. coli and P. aeruginosa. First, 200 μl of each active agent was placed into separate low retention centrifuge tubes. 100 μl of PBS buffer was added to each tube to baseline the ionic strength, and to adjust the pH value to 7. […] The samples were continuously vortexed. After the bacteria were exposed to the active agent for 1 minute, the survival rate of the bacteria was determined by plating 100 μl of each sample evenly distributed on Luria-Bertani agar plates. The procedure was repeated after 30 minutes of exposure time. After the plating procedure, the petri dishes were sealed and incubated upside-down for 48 h at 37° C.

Molecules are shown by their SMILES.

With `O=[N+]([O-])[O-].[Ag+]` [AgNO3, silver nitrate], the Pseudomonas aeruginosa growth result in the experiment with Pseudomonas aeruginosa (1 min vortex time or contact time, 10 ppm) is “Yes”; in the experiment with Pseudomonas aeruginosa (1 min vortex time or contact time, 20 ppm), “Yes”; with Pseudomonas aeruginosa (30 min vortex time or contact time, 10 ppm), “Yes”; in the experiment on Pseudomonas aeruginosa (30 min vortex time or contact time, 20 ppm), “Yes”. Also, the “antimicrobial effect (in words)” value with Pseudomonas aeruginosa (20 ppm Ag) and with Pseudomonas aeruginosa (concentration not given) was “no complete antimicrobial effect” throughout. The “Ag concentration at which antimicrobial effects were exhibited” value in the experiment on E. coli BL21 (DE3) was determined as 40 ppm Ag. For the same compound, the CFU reduction efficiency in the experiment on E. coli BL21 (DE3) (1 min vortex time) came to 53.33%; with E. coli BL21 (DE3) (30 min vortex time) it was 96.19%.

For the origin of these results see patent US10278395B2, “Functionalized environmentally benign nanoparticles” (North Carolina State University, priority 2013, dated 2019).
